US20250179559A1, “DUAL-LUCIFERASE REPORTER GENE DETECTION SYSTEM, FLUORESCENCE DETECTION KIT, AND METHOD FOR DETECTING LUMINESCENT SIGNAL OF LUCIFERASE” (BGI SHENZHEN, priority 2022, published 2025)

Experiments:
[1] = tested on: wild-type Gaussia luciferase (WT-Gluc); experiment: Luminescence intensity of substrates with wild-type Gaussia luciferase; assay type: biochemical, Gaussia princeps; details: for Gluc fluorescence intensity: luciferase 1 μg/mL (10 μL), substrate 10 μM (90 μL), microplate reader; for Gluc relative intensity: percentage relative to wild-type Pleuromamma xiphias luciferase with compound N0, substrate 10 μM
Protocol: (§1) [drawing 6] • (3) According to the conventional methods, such as the method disclosed in PCT/CN2017/082180, an expression vector (plasmid) containing the wild-type Gaussia luciferase gene and the wild-type Pleuromamma xiphias luciferase gene was constructed. The plasmid was transformed into Escherichia coli OrigamiB (DE3), which was coated on a plate, and a single colony was picked from the plate, cultured overnight at 37° C., diluted at a ratio of 1:100 on the next day, transferred to 3 mL of fresh LB medium containing ampicillin resistance (100 μg/mL), cultured with shaking at 37° C. and 200 rpm for 4 hours, and cooled on ice for 1 hour. The inducer IPTG was added at a final concentration of 1 mM and the induction was preformed overnight at 16° C. On the next day, the bacteria were collected by centrifugation, resuspended with 500 μL lysate (50 mM Tris-HCl pH 8.0, 500 mM NaCl, 0.2% lysozyme, PMSF), lysed for 20 minutes at room temperature, frozen with liquid nitrogen and thawed for 3 times, and centrifuged for 30 minutes at 18,000 g. The supernatant was taken, which was purified by using a centrifugal Ni column. The protein eluted by Ni column was dialyzed with dialysis buffer (25 mM Tris, pH 8.0, 250 mM NaCl) at 4° C. overnight. The concentration of luciferase was accurately determined by using a BCA quantitative kit (Thermoscientific™ Pierce™ BCA protein assay kit). The two luciferases were diluted to a concentration of 1 μg/mL with a diluent (50 mM Tris-HCl pH 8.0, 100 mM NaCl, 0.1% (v/v) Tween-20), and 10 μL of each luciferase was taken and added to a black 96-well plate. The substrate was diluted to 10 μM with the same diluent, 90 μL of the substrate was taken add into the 96-well plate containing the above luciferases (90 μL/well), and the luminescence intensity was read by using a light-emitting module of a microplate reader. The test data of the Gaussia luciferase and the Pleuromamma xiphias luciferase on different substrates were shown in Table 1, in which the relative intensity is a percentage relative to the activity of wild-type Pleuromamma xiphias luciferase and compound N0. […] That is, in this dual-luciferase reporter gene detection system, the optimal luminescent combination with high fluorescence brightness and low cross-interference obtained after screening is using f-CTZ to detect the Gaussia luciferase, and using N0 to detect the Pleuromamma xiphias luciferase.

[2] = tested on: wild-type Pleuromamma xiphias luciferase (WT-Pxluc); experiment: Luminescence intensity of substrates with wild-type Pleuromamma xiphias luciferase; assay type: biochemical; details: for Pxluc fluorescence intensity: luciferase 1 μg/mL (10 μL), substrate 10 μM (90 μL), microplate reader; for Pxluc relative intensity: percentage relative to wild-type Pleuromamma xiphias luciferase with compound N0, substrate 10 μM
Protocol: as §1

[3] = tested on: Pleuromamma xiphias luciferase mutant P26-95; experiment: Luminescence intensity of substrates with Pleuromamma xiphias luciferase mutant P26-95; assay type: biochemical; details: mutant P26-95, among tested substrates
Protocol: (§2) The two luciferases were diluted to a concentration of 1 μg/mL with a diluent (50 mM Tris-HCl pH 8.0, 100 mM NaCl, 0.1% (v/v) Tween-20), and 10 μL of each luciferase was taken and added to a black 96-well plate. The substrate was diluted to 10 μM with the same diluent, 90 μL of the substrate was taken add into the 96-well plate containing the above luciferases (90 μL/well), and the luminescence intensity was read by using a light-emitting module of a microplate reader.
Mutant-Type Pleuromamma xiphias Luciferase P26-95: • d) P26-95: based on SEQ ID NO: 3, the following sites were mutated: G83A, and G84P.
(§3) According to the method as described in Example 1, an expression vector containing the gene of the Gaussia luciferase mutant and the gene of the Pleuromamma xiphias luciferase mutant was constructed, a recombinant strain was constructed, the mutant-type luciferases were expressed, and the luminous intensity of substrates and luciferases was detected.

[4] = tested on: Gaussia luciferase mutant E1-A3; experiment: Luminescence intensity of substrates with Gaussia luciferase mutant E1-A3; assay type: biochemical, Gaussia princeps; details: mutant E1-A3, among tested substrates
Protocol: as §2, §3

[5] = tested on: Gaussia luciferase mutant G2-F8; experiment: Luminescence intensity of substrates with Gaussia luciferase mutant G2-F8; assay type: biochemical, Gaussia princeps; details: mutant G2-F8, among tested substrates
Protocol: as §2, §3

[6] = tested on: Gaussia luciferase mutant G2-F11; experiment: Luminescence intensity of substrates with Gaussia luciferase mutant G2-F11; assay type: biochemical, Gaussia princeps; details: mutant G2-F11, among tested substrates
Protocol: as §2, §3

Gluc fluorescence intensity [1]	Gluc relative intensity [1] [%]	Pxluc fluorescence intensity [2]	Pxluc relative intensity [2] [%]	SMILES	fluorescence intensity compared among substrates (in words) [3]	fluorescence intensity compared among substrates (in words) ([2]; wild-type Pleuromamma xiphias luciferase, among tested substrates)	fluorescence intensity compared among substrates (in words) [4]	fluorescence intensity compared among substrates (in words) ([1]; wild-type Gaussia luciferase, among tested substrates)	fluorescence intensity compared among substrates (in words) [5]	fluorescence intensity compared among substrates (in words) [6]
457	0.3	4430	2.8	Nc1ccc(-c2cn3c(=O)c(Cc4ccc(O)cc4)nc-3c(Cc3ccccc3)[nH]2)cc1 [Substrate N5]						
15	0.0	3464	2.2	Nc1ccc(-c2cn3c(=O)c(Cc4ccc(F)cc4)nc-3c(Cc3ccccc3)[nH]2)cc1 [Substrate N6]						
135	0.1	4430	2.8	O=c1c(Cc2ccc(O)cc2)nc2c(Cc3ccccc3)[nH]c(/C=C/c3ccccc3)cn1-2 [Substrate N7]						
17	0.0	4137	2.6	CN(C)c1ccc(-c2cn3c(=O)c(Cc4ccc(F)cc4)nc-3c(Cc3ccccc3)[nH]2)cc1 [Substrate N4]						
263	0.2	1520	0.9	CN(C)c1ccc(-c2cn3c(=O)c(Cc4ccc(O)cc4)nc-3c(Cc3ccccc3)[nH]2)cc1 [Substrate N3]						
0	0.0	1173	0.7	O=c1c(Cc2ccc(O)cc2)nc2c(Cc3ccccc3)[nH]c(Cc3ccccc3)cn1-2 [Substrate N1]						
0	0.0	3026	1.9	O=c1c(Cc2ccc(F)cc2)nc2c(Cc3ccccc3)[nH]c(Cc3ccccc3)cn1-2 [Substrate N2]						
12	0.0	1426	0.9	O=c1c(Cc2ccc(F)cc2)nc2c(Cc3ccccc3)[nH]c(/C=C/c3ccccc3)cn1-2 [Substrate N8]						

SMILES	Gluc fluorescence intensity [1]	Gluc relative intensity [1] [%]	Pxluc fluorescence intensity [2]	Pxluc relative intensity [2] [%]	fluorescence intensity compared among substrates (in words) [3]	fluorescence intensity compared among substrates (in words) ([2]; wild-type Pleuromamma xiphias luciferase, among tested substrates)	fluorescence intensity compared among substrates (in words) [4]	fluorescence intensity compared among substrates (in words) ([1]; wild-type Gaussia luciferase, among tested substrates)	fluorescence intensity compared among substrates (in words) [5]	fluorescence intensity compared among substrates (in words) [6]
O=c1c(Cc2ccc(O)cc2)nc2c(Cc3ccccc3)[nH]c(-c3cccc(O)c3)cn1-2 [Substrate N0]	5338	3.3	160037	100	highest fluorescence intensity	highest fluorescence intensity				
O=c1c(Cc2ccc(F)cc2)nc2c(Cc3ccccc3)[nH]c(-c3ccc(O)cc3)cn1-2 [f-CTZ]	10186.5	6.4	69138	43.2			highest fluorescence intensity	highest fluorescence intensity	highest fluorescence intensity	highest fluorescence intensity
